“And” between values parts separate entries of the source, which are not always exact repeats. Equal values may be shown once.
Experiments:
[1] = Half-life of DMB (summary statement); conditions: in vivo
[2] = Cardiovascular and hemodynamic effects, 28-Day Beagle dog study; assay type: in vivo, Beagle dogs
Protocol: (§1) Cardiovascular safety pharmacology assessments included an in vitro screen to evaluate the effects of DMB on cardiac ion channel and an in vivo evaluation of cardiovascular and hemodynamic effects in Beagle dogs. Electrophysiologic effects were evaluated in laboratory studies utilizing voltage-clamped human embryonic kidney cells transformed by adenovirus cDNA and transfected with cDNA in order to stably express the human ether a-go-go related gene (hERG). The effect on cellular hERG channels was evaluated at DMB concentrations up to 1 mM (138 μg/mL).

[3] = Pharmacokinetics of single doses in 5 baboons; conditions: monkey, in vivo
Protocol: Pharmacokinetics analyses have been conducted with DMB and 2,2-dimethylbutyric acid neutralized with L-arginine in baboons, dogs, and rats. The AUC per dose varied between animals.
Pharmacokinetic analyses of 2,2-dimethylbutyrate was conducted as either the sodium salt or the L-arginine salt, via the oral or intravenous route, as single doses to 5 baboons at doses of 33.3, 83.3, 100, 125 or 167 mg/kg free acid.
The data collected on DMB in plasma allowed an assessment of pharmacokinetic parameters; however, since collection time points were not performed in some baboons during the terminal elimination phase, these determinations are preliminary. The AUC per dose varied between animals. The area under the plasma concentration time-curve (AUC0-24 hr) following oral administration of DMB at 83.3 or 125 mg/kg free acid (100 and 150 mg/kg with salt) ranged from 1962-9363 μmol·h/L ([…]).

[4] = Phase 1 repeat-dose clinical study, safety; assay type: in vivo, human
Protocol: DMB was evaluated in a phase 1, placebo-controlled, randomized, repeat dose clinical study that evaluated tolerability, safety, and pharmacokinetics in healthy volunteers. A total of 41 subjects (31 receiving active drug and 10 receiving placebo) completed 14 consecutive days of study medication at daily dose levels of 5, 10 or 15 mg/kg (10 subjects received placebo). Given the importance of iron in red blood cell production, and the requirement for iron supplementation for induction of HbF with other erythropoietic agents, subjects at all 3 dose levels received oral ferrous gluconate on the study medication days. DMB was administered with food to all but one group (5 mg/kg, cohort 1). Subjects were admitted and observed for 24 hours following initial dosing. Thereafter, the study drug was taken once per day at home, except for the last study day. The subjects were monitored weekly for 6 weeks. Thirty-seven subjects completed the study and 4 subjects dropped out due to conflicts. Safety and PK data are available on these subjects.
The treatment groups included: Cohort 1: 5 mg/kg fasting, 6 active, 2 placebo; Cohort 2: 5 mg/kg with food, 7 active, 2 placebo (3 drop outs); Cohort 3: 5 mg/kg with food and iron supplements, 6 active, 2 placebo (1 drop out); Cohort 4: 10 mg/kg with food and iron supplements, 6 active, 2 placebo; and Cohort 5: 15 mg/kg with food and iron supplements, 6 active, 2 placebo. Subjects in Cohorts 3, 4, and 5 received a single daily dose of ferrous gluconate (325 mg). The iron supplement was administered to evaluate study medication tolerability when taken with iron. No subjects discontinued due to AEs or safety concerns. Fewer subjects reported an event in the highest dose cohort following eating a meal ([…]) than were reported in the lower dose cohorts ([…], 5 and 10 mg/kg).
The AEs observed in this study are described in Table 11. All events were assessed as mild by the Principal Investigator and resolved either on study or post study. No SAEs were reported. Two subjects had transient lymphadenopathy that were not considered related to study medication. No laboratory abnormalities of significance were noted except one patient developed a urinary tract infection. No clinically significant ECG abnormalities were noted.

[5] = Phase 2 trial in sickle cell disease patients, safety; assay type: in vivo, human; conditions: 10, 20, 30 mg/kg/day
Protocol: A randomized, blinded dose-ranging Phase 1/2 clinical trial was performed in 24 US and Jamaican adult patients with sickle cell disease (including HbSS or S/β thalassemia). DMB was administered once daily for six week cycles of daily therapy with a 2 week treatment break between two cycles, then followed by a final 4 weeks without treatment. Three dose levels (10, 20, 30 mg/kg/day) were studied sequentially. Four out of 24 subjects were treated with placebo and 21 subjects were evaluable. Seven Patients (5 active/2 placebo) at 10 mg/kg, 6 patients (5 active/1 placebo) at 20 mg/kg, and 9 patients (7 active/1 placebo) at 30 mg/kg were randomized in the study. Patients ranged in age from 14 to 56 with a median age of 31 and were comprised of […]. Patients were followed for hematologic parameters focusing on fetal hemoglobin (HbF). HbF was measured by a Waters Empower 32 HPLC system with a Synchropak CM-300 column.

hERG channels = biological target: T1, hERG channels (Homo sapiens, UniProt Q12809); assay: hERG channel, voltage-clamped human embryonic kidney cells; assay type: cell-based; conditions: concentrations up to 1 mM (138 μg/mL)
T1 construct: expressed in transfected cells
Protocol: as §1

[6] = Immunotoxicology weight-of-evidence analysis, repeat dose dog study; assay type: in vivo, Beagle dog
From the text: The immunotoxicological potential of DMB has been evaluated by a weight-of-evidence analysis of the data generated in the repeat dose Sprague Dawley rat and Beagle dog studies. In both studies, there were no effects of treatment on WBC levels or lymph node histopathology, which are predictive of potential immunotoxicity.

T1 sequence (Q12809 whole entry): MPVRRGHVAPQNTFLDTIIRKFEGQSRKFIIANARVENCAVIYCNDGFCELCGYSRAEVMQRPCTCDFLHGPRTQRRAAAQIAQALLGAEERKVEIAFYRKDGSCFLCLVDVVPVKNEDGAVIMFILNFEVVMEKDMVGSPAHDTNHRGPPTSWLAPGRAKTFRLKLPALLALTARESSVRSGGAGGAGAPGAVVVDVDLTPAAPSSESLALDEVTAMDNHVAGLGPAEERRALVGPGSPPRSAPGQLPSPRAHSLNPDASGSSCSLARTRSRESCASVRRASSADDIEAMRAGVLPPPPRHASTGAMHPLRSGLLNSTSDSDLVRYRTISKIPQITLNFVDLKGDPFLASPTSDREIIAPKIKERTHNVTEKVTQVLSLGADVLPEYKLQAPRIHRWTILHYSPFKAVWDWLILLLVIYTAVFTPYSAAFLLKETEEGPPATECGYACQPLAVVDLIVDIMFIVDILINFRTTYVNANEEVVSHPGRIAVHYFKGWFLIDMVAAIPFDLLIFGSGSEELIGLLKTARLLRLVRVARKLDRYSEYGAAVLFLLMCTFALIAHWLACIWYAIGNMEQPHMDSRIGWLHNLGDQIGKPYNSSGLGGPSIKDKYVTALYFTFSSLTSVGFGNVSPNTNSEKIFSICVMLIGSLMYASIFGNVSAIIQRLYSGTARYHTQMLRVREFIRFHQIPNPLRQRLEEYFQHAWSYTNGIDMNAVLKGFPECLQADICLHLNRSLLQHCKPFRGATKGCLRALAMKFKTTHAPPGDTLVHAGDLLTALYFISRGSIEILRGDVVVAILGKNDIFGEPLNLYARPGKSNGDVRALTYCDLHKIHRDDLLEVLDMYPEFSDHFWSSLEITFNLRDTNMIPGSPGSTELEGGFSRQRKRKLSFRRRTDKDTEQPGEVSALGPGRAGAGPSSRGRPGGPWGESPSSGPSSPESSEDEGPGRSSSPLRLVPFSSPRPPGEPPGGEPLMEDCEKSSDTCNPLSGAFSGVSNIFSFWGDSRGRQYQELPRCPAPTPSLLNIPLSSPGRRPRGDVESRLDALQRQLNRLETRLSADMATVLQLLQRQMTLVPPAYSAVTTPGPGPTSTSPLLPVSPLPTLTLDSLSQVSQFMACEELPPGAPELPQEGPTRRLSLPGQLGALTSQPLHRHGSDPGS

## CCC(C)(C)C(=O)[O-].[Na+] [DMB, Sodium 2,2-dimethylbutyrate]
[1]
  half-life: 9 to 11 h
[2]; 500 mg/kg/day, female Beagle dogs only, not statistically different from baseline (p>0.05)
  QTc prolongation, average: 14%
[2]; 28-Day study
  effects on systemic hemodynamics: No effects
[3]
  clearance: 0.833 to 7 mL/min/kg
[3]; half-life, range
  half-life: 1.2 to 7.9 h
[3]; median half-life
  half-life: 2.7 h
[3]; po, 125 mg/kg
  AUC(0-t): 1960 µM·h to 9360 µM·h and 226 ng·h/mL to 1080 ng·h/mL
[3]; po, Oral bioavailability over 24 hours
  bioavailability: > 60%
[4]; 5, 10, 15 mg/kg for 14 days
  SAEs reported: No SAEs
  dose limiting toxicity: No dose limiting toxicity
[4]; 5 to 15 mg/kg/day for 14 consecutive days
  tolerability: well-tolerated
[4]; DMB N = 31
  Subject incidence of Abdominal pain: 3%
  Subject incidence of Contusion of elbow: 3%
  Subject incidence of Diarrhea: 6%
  Subject incidence of Fatigue: 3%
  Subject incidence of Flatulence: 6%
  Subject incidence of Gastritis: 3%
  Subject incidence of Gastroenteritis: 3%
  Subject incidence of Headache: 23%
  Subject incidence of Light-headedness: 3%
  Subject incidence of Lymphadenopathy, inguinal: 3%
  Subject incidence of Menstrual cramps: 6%
  Subject incidence of Nausea: 6%
  Subject incidence of Pharyngeal erythema: 3%
  Subject incidence of Pharyngitis: 6%
  Subject incidence of Pregnancy: 3%
  Subject incidence of Reflux esophagitis: 3%
  Subject incidence of Spasm, esophageal: 3%
  Subject incidence of Sunburn: 3%
  Subject incidence of Upper respiratory infection: 3%
  Subject incidence of Urinary tract infection: 3%
  Subject incidence of Vaginal candidiasis: 3%
[5]
  tolerability: well tolerated
hERG channels
  activity on hERG channel function: essentially no activity
[6]
  effects on WBC levels or lymph node histopathology: no effects

Source: patent publication US8618068B2, “Methods and low dose regimens for treating red blood cell disorders” (priority 2009, dated 2013)
